Assay results: US7183267B2, “β-lactamase inhibitors and methods of use thereof” (priority 2003, dated 2007)
Values after ≈ are worked out from the molar mass of the structure shown.

How the values were obtained:
Assay type in all cases: cell-based
[1] = test system: methicillin resistant S. aureus from Stanford University Hospital (MRSA-SU); test: MIC assay, broth microdilution, MRSA-SU; conditions: Staphylococcus aureus; MRSA-SU; substance alone; at least 24 hours at 35° C.; read-out: MIC
Method in brief: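 MRSA clinical isolate from Stanford University Hospital, tested in duplicate by NCCLS (2000) broth microdilution in Mueller-Hinton broth at 5×10^5 CFU/ml. Compounds were tested as two-fold dilutions at 512–4 μg/ml, with DMSO stocks, and incubated ≥24 h at 35 °C. MIC was the lowest dose with no visible growth.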

[2] = test system: methicillin resistant S. aureus from Stanford University Hospital (MRSA-SU); test: Matrix system: oxacillin plus β-lactamase inhibitor, MRSA-SU; set-up: key to growth score: 0 = no growth, 3 = growth equal to negative solvent control
Method: To each well of a 96 well microtiter plate was added 47.5 μl of MHB. A volume of 2.5 μl of each dilution of oxacillin was then transferred to appropriate wells containing the medium. All wells, except the sterility control wells, were then inoculated with 50 μl of a diluted cell suspension to give a final volume of 100 μl and a final cell density of 5×10^4 CFU/well. The volume in the sterility control wells was adjusted to 100 μl with MHB. A sterile pipette tip was used to mix the contents of each well (one tip was used going from the low to the high concentration in the same column). The microtiter plates were covered with the lids and were placed in large Stratagene Big Blue plates (Cat. # 400041). Four large kimwipes moistened with tap water were placed near the edges of the Stratagene plates to prevent evaporation of the medium. The microtiter plates were incubated for at least 24 hours at 35° C. The plates were then evaluated for growth in each well. Controls included: medium sterility and negative control (medium and bacteria only).
A numerical code was used to evaluate the extent of growth as indicated below. • 0: absence of growth • 1: barely visible (faint) growth • 2: fair growth but less than the negative solvent control • 3: growth is equivalent to the negative solvent control.
The lowest dose at which no visible growth is observed was determined to be the MIC value.
The effect of the four compounds of the present invention on oxacillin resistance of the MRSA strains was determined using a matrix system. The β-lactamase inhibitors were tested at 5 doses against up to eleven concentrations of oxacillin. […] A 96-well microtiter plate was used for the matrix system. The procedure was identical to that described above for the MIC determination, with the exception that both oxacillin and one each of the β-lactamase inhibitors was added, 2.5 μl each, to the wells prior to addition of the test organisms.
Matrix Study:Oxacillin and Compound FL201 with MRSA-SU
Matrix Study: Oxacillin and Compound FL202 with MRSA-SU

[3] = test system: methicillin resistant S. aureus ATCC 33591 (MRSA-ATCC); test: MIC assay, broth microdilution, MRSA-ATCC; conditions: Staphylococcus aureus; MRSA-ATCC; substance alone; at least 24 hours at 35° C.; read-out: MIC
Method in brief: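 MRSA ATCC 33591 in Mueller-Hinton broth, inoculum about 5×10^5 CFU/ml; compounds tested as 8 two-fold doses 512–4 μg/ml (oxacillin 64–0.5 μg/ml) from DMSO dilutions, in duplicate. Incubated at least 24 h at 35° C; MIC is lowest dose with no visible growth.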

In the case of `Cc1onc(-c2ccccc2)c1C(=O)N[C@@H]1C(=O)N2[C@@H]1SC(C)(C)[C@@H]2C(=O)O` [Oxacillin, reference compound], the MIC [1] is reported as > 64 µg/mL, the MIC ([2]; Staphylococcus aureus, 24 h, Table 17, oxacillin alone, F1201 0) is reported as 256 µg/mL and the growth score ([2]; Table 17, oxacillin 0.064 μg/ml, F1201 0) is reported as 3. For the same compound, the growth score ([2]; Table 17, oxacillin 0.125 μg/ml, F1201 0) was 3, the growth score ([2]; Table 17, oxacillin 0.25 μg/ml, F1201 0) was 3 and the growth score ([2]; Table 17, oxacillin 0.5 μg/ml, F1201 0) was 3. For the same compound, the growth score ([2]; Table 17, oxacillin 1 μg/ml, F1201 0) was 3, the growth score ([2]; Table 17, oxacillin 2 μg/ml, F1201 0) was 3 and the growth score ([2]; Table 17, oxacillin 4 μg/ml, F1201 0) was 3. For the same compound, the growth score ([2]; Table 17, oxacillin 16 μg/ml, F1201 0) was 3, the growth score ([2]; Table 17, oxacillin 64 μg/ml, F1201 0) was 2 and the growth score ([2]; Table 17, oxacillin 128 μg/ml, F1201 0) was 1. The growth score ([2]; Table 17, oxacillin 256 μg/ml, F1201 0) was 0, the growth score ([2]; Table 18, oxacillin 0.064 μg/ml, F1202 0) was 3 and the growth score ([2]; Table 18, oxacillin 0.125 μg/ml, F1202 0) was 3. It also gave a growth score ([2]; Table 18, oxacillin 0.25 μg/ml, F1202 0) of 3, a growth score ([2]; Table 18, oxacillin 0.5 μg/ml, F1202 0) of 3 and a growth score ([2]; Table 18, oxacillin 1 μg/ml, F1202 0) of 3. For the same compound, the growth score ([2]; Table 18, oxacillin 2 μg/ml, F1202 0) was 3, the growth score ([2]; Table 18, oxacillin 4 μg/ml, F1202 0) was 3 and the growth score ([2]; Table 18, oxacillin 16 μg/ml, F1202 0) was 3. The growth score ([2]; Table 18, oxacillin 64 μg/ml, F1202 0) was 2, the growth score ([2]; Table 18, oxacillin 128 μg/ml, F1202 0) was 2 and the growth score ([2]; Table 18, oxacillin 256 μg/ml, F1202 0) was 0. For the same compound, the “MIC (oxacillin)” value ([2]; Table 18, oxacillin alone, F1202 0) was 256 µg/mL and the MIC [3] was 32 µg/mL (≈ 79.7 µM).
